Where two headings read alike, the source gives them in different places.
System: cancer cells
Test: MTS assay: inhibition of cell growth (formazan absorbance at 492 nm after 72 hours with test compound)
Type: cell-based
Conditions: inhibition class
Method: Cells were maintained at 37° C., 5% CO2 in DMEM media supplemented with 1% fetal bovine serum, penicillin/streptomycin and fungizone (Invitrogen). Cells were seeded into 96-well tissue culture plates at 3000 per well and cultured at 37° C. for 18 hours. Test compounds were dissolved and diluted to 300× in DMSO then diluted 1:40 in DMEM. Cells were incubated with test compounds for 72 hours followed by incubation with tetrazolium compound (3-(4,5-dimethylthiazol-2-yl)-5-(3-carboxymethoxyphenyl)-2-(4-sulfophenyl)-2H-tetrazolium, inner salt; MTS) and the electron coupling reagent, phenazine methosulfate (PMS) for 4 hours. […] The ability of compounds to inhibit cell growth in this assay is correlated with the reduction of dehydrogenase enzyme activity found in metabolically active cells. The measurement of the absorbance of the formazan was assessed using an ENVISION™ (Perkin Elmer) microplate reader at 492 nm. The calculated IC50 value is the concentration of the test compound that causes a 50% decrease in the absorbance. […] A=>79% inhibition, B=>50 to 79% inhibition, C=<50% inhibition.

[1] = Homo sapiens, DLD-1 cells, read-out: DLD-1, MTS 72 hours at 10 uM
[2] = Homo sapiens, KATO III cells, read-out: KATO III, MTS 72 hours at 10 uM
[3] = Homo sapiens, MDA-MB-231 cells, read-out: MDA-MB-231, MTS 72 hours at 10 uM
[4] = Homo sapiens, NCI-H1299 cells, read-out: NCI-H1299, MTS 72 hours at 10 uM
[5] = Homo sapiens, PC-3 cells, read-out: PC-3, MTS 72 hours at 10 uM
[6] = PACA-2 cells, read-out: PACA-2, MTS 72 hours at 10 uM

Row | SMILES | inhibition at 10 µM [1] [%] | inhibition at 10 µM [2] [%] | inhibition at 10 µM [3] [%] | inhibition at 10 µM [4] [%] | inhibition at 10 µM [5] [%] | inhibition at 10 µM [6] [%]
1 | c1ccc(CN2CCc3n[nH]c4nc(N5CCN(c6ccccc6)CC5)nc2c34)cc1 [Compound 44, 6-benzyl-4-(4-phenylpiperazin-1-yl)-2,6,7,8-tetrahydro-1,2,3,5,6-pentaazaacenaphthylene] | < 50 | < 50 | < 50 | < 50 | < 50 | < 50
2 | c1ccc(CC2CCN(c3nc4c5c(n[nH]c5n3)CCN4Cc3ccccc3)CC2)cc1 [Compound 45, 6-benzyl-4-(4-benzylpiperidin-1-yl)-2,6,7,8-tetrahydro-1,2,3,5,6-pentaazaacenaphthylene] | < 50 | < 50 | < 50 | < 50 | < 50 | < 50
3 | Fc1ccc(CCNc2nc3c4c(n[nH]c4n2)CCN3Cc2ccccc2)cc1 [Compound 46, 6-benzyl-N-[2-(4-fluorophenyl)ethyl]-2,6,7,8-tetrahydro-1,2,3,5,6-pentaazaacenaphthylen-4-amine] | > 79 | > 79 | > 79 | 50 to 79 | < 50 | > 79
4 | COc1ccc(CNc2nc3c4c(n[nH]c4n2)CCN3Cc2ccccc2)cc1OC [Compound 47, 6-benzyl-N-(3,4-dimethoxybenzyl)-2,6,7,8-tetrahydro-1,2,3,5,6-pentaazaacenaphthylen-4-amine] | < 50 | < 50 | < 50 | < 50 | < 50 | < 50
5 | COc1ccccc1CCNc1nc2c3c(n[nH]c3n1)CCN2Cc1ccccc1 [Compound 48, 6-benzyl-N-[2-(2-methoxyphenyl)ethyl]-2,6,7,8-tetrahydro-1,2,3,5,6-pentaazaacenaphthylen-4-amine] | < 50 | < 50 | 50 to 79 | < 50 | < 50 | < 50
6 | c1ccc(CN2CCc3n[nH]c4nc(NC5CCC5)nc2c34)cc1 [Compound 49, 6-benzyl-N-cyclobutyl-2,6,7,8-tetrahydro-1,2,3,5,6-pentaazaacenaphthylen-4-amine] | < 50 | < 50 | 50 to 79 | < 50 | < 50 | < 50
7 | COc1cc(CNc2nc3c4c(n[nH]c4n2)CCN3Cc2ccccc2)cc(OC)c1OC [Compound 50, 6-benzyl-N-(3,4,5-trimethoxybenzyl)-2,6,7,8-tetrahydro-1,2,3,5,6-pentaazaacenaphthylen-4-amine] | < 50 | < 50 | < 50 | < 50 | < 50 | < 50
8 | O=C1CCCN1CCCNc1nc2c3c(n[nH]c3n1)CCN2Cc1ccccc1 [Compound 51, 1-{3-[(6-benzyl-2,6,7,8-tetrahydro-1,2,3,5,6-pentaazaacenaphthylen-4-yl)amino]propyl}pyrrolidin-2-one] | < 50 | < 50 | < 50 | < 50 | < 50 | < 50
9 | CCC(C)Nc1nc2c3c(n[nH]c3n1)CCN2Cc1ccccc1 (stereo not drawn) [Compound 52, 6-benzyl-N-sec-butyl-2,6,7,8-tetrahydro-1,2,3,5,6-pentaazaacenaphthylen-4-amine] | > 79 | > 79 | > 79 | 50 to 79 | < 50 | 50 to 79
10 | O=C(c1ccco1)N1CCN(c2nc3c4c(n[nH]c4n2)CCN3Cc2ccccc2)CC1 [Compound 53, 6-benzyl-4-[4-(2-furoyl)piperazin-1-yl]-2,6,7,8-tetrahydro-1,2,3,5,6-pentaazaacenaphthylene] | < 50 | < 50 | 50 to 79 | < 50 | < 50 | < 50
11 | c1ccc(CN2CCc3n[nH]c4nc(NCc5ccco5)nc2c34)cc1 [Compound 54, 6-benzyl-N-(2-furylmethyl)-2,6,7,8-tetrahydro-1,2,3,5,6-pentaazaacenaphthylen-4-amine] | < 50 | < 50 | < 50 | < 50 | < 50 | < 50
12 | c1ccc(CN2CCc3n[nH]c4nc(NCC5CCCCC5)nc2c34)cc1 [Compound 55, 6-benzyl-N-(cyclohexylmethyl)-2,6,7,8-tetrahydro-1,2,3,5,6-pentaazaacenaphthylen-4-amine] | > 79 | > 79 | > 79 | 50 to 79 | < 50 | < 50
13 | c1ccc(CN2CCc3n[nH]c4nc(N5CCN(c6cnccn6)CC5)nc2c34)cc1 [Compound 56, 6-benzyl-4-(4-pyrazin-2-ylpiperazin-1-yl)-2,6,7,8-tetrahydro-1,2,3,5,6-pentaazaacenaphthylene] | < 50 | < 50 | < 50 | < 50 | < 50 | < 50
14 | c1ccc(CN2CCc3n[nH]c4nc(NCCN5CCOCC5)nc2c34)cc1 [Compound 57, 6-benzyl-N-(2-morpholin-4-ylethyl)-2,6,7,8-tetrahydro-1,2,3,5,6-pentaazaacenaphthylen-4-amine] | > 79 | > 79 | > 79 | 50 to 79 | > 79 | > 79
15 | COc1cc2c(cc1OC)CN(c1nc3c4c(n[nH]c4n1)CCN3Cc1ccccc1)CC2 [Compound 58, 6-benzyl-4-(6,7-dimethoxy-3,4-dihydroisoquinolin-2(1H)-yl)-2,6,7,8-tetrahydro-1,2,3,5,6-pentaazaacenaphthylene] | 50 to 79 | < 50 | 50 to 79 | 50 to 79 | > 79 | < 50
16 | c1ccc(CN2CCc3n[nH]c4nc(NCC5COc6ccccc6O5)nc2c34)cc1 (stereo not drawn) [Compound 59, 6-benzyl-N-(2,3-dihydro-1,4-benzodioxin-2-ylmethyl)-2,6,7,8-tetrahydro-1,2,3,5,6-pentaazaacenaphthylen-4-amine] | < 50 | < 50 | < 50 | < 50 | < 50 | < 50
17 | CC(C)Nc1nc2c3c(n[nH]c3n1)CCN2Cc1ccccc1 [Compound 60, 6-benzyl-N-isopropyl-2,6,7,8-tetrahydro-1,2,3,5,6-pentaazaacenaphthylen-4-amine] | < 50 | < 50 | < 50 | < 50 | < 50 | < 50
18 | Clc1ccc(CCNc2nc3c4c(n[nH]c4n2)CCN3Cc2ccccc2)cc1 [Compound 61, 6-benzyl-N-[2-(4-chlorophenyl)ethyl]-2,6,7,8-tetrahydro-1,2,3,5,6-pentaazaacenaphthylen-4-amine] | 50 to 79 | < 50 | < 50 | 50 to 79 | < 50 | < 50
19 | OCCN(Cc1ccccc1)c1nc2c3c(n[nH]c3n1)CCN2Cc1ccccc1 [Compound 62, 2-[benzyl(6-benzyl-2,6,7,8-tetrahydro-1,2,3,5,6-pentaazaacenaphthylen-4-yl)amino]ethanol] | < 50 | < 50 | 50 to 79 | < 50 | < 50 | < 50
20 | c1ccc(CN2CCc3n[nH]c4nc(NCc5ccc6c(c5)CCO6)nc2c34)cc1 [Compound 63, 6-benzyl-N-(2,3-dihydro-1-benzofuran-5-ylmethyl)-2,6,7,8-tetrahydro-1,2,3,5,6-pentaazaacenaphthylen-4-amine] | < 50 | < 50 | < 50 | < 50 | < 50 | < 50
21 | CN(CCO)c1nc2c3c(n[nH]c3n1)CCN2Cc1ccccc1 [Compound 64, 2-[(6-benzyl-2,6,7,8-tetrahydro-1,2,3,5,6-pentaazaacenaphthylen-4-yl)(methyl)amino]ethanol] | < 50 | < 50 | < 50 | < 50 | < 50 | < 50

From patent publication US8343983B2, “Substituted pyrazolo-pyrimidine compounds” (ArQule, Inc., priority 2009, dated 2013)
